Test results from US9241976B2, “Use of HDL-related molecules to treat and prevent proinflammatory conditions” (THE REGENTS OF THE UNIVERSITY OF CALIFORNIA, priority 2011, dated 2016).

Columns and labels:
HIF-1α [1] = assay: ID8 flank tumor model, HIF-1α immunohistochemistry; assay type: in vivo, mouse; details: C57BL/6J mice, ID8 tumors; 10 mg/kg s.c. daily for 3 weeks; vs sc-4F
Procedure: (§1) Nine-week-old C57BL/6J female mice were given a 0.5-ml subcutaneous injection of 5×10^6 ID8 cells prepared as a single cell suspension in PBS mixed with an equal volume of cold Matrigel (BD Biosciences, San Jose, Calif.). After 2 weeks, mice started to receive scrambled 4F peptide (sc-4F) or L-4F (10 mg/kg) by subcutaneous injection at a site distant from the site where the ID8 cells were injected daily for 3 weeks. After 3 weeks, the mice were sacrificed for tumor collection and further analyses.
(§2) Frozen tumor tissues were sectioned at a thickness of 5 μm and fixed with cold acetone for 10 min at −20° C. The sections were blocked with 10% normal goat serum and 4% bovine serum albumin prepared in PBS for 3 h and immediately incubated with rabbit anti-mouse polyclonal HIF-1α antibody (1:200) (Abcam Inc.) or rat anti-mouse monoclonal CD31 antibody (1:25) (Abcam Inc.) overnight at 4° C. The sections were then incubated with corresponding biotinylated secondary antibodies (Vector Laboratories) for 30 min at room temperature followed by incubation with Vectastain ABC Elite reagents (Vector Laboratories) to visualize the staining. Finally, sections were lightly counterstained with hematoxylin, dehydrated, and coverslipped with Vecta-Mount solution (Vector Laboratories).

NIH3T3 cells = assay: NIH3T3 cell viability, MTS assay; assay type: cell-based; details: 10 μg/mL, 48 hours
Procedure: CT26 and NIH3T3 cells (2,000 cells per well) were first cultured in complete medium in 96-well culture plates, and 24 hours later the medium was replaced with serum-free medium. […] Cells were incubated for an additional 48 hours and assayed for viability using MTS assays kit (Promega) according to the manufacturer's protocol.

[2] = reference (17); cited from earlier work
CT26 cells = details: BALB/c, mouse, 48 hours
Procedure: CT26 cell line derived from N-nitroso-N-methyl urethane-induced mouse colon carcinoma of BALB/c origin was purchased from the American Type Culture Collection (ATCC). CT26 cells (2,000 cells per well) were first cultured in complete medium in 96-well culture plates, and 24 hours later the medium was replaced with serum free medium. Following an overnight incubation, the cells were either treated with vehicle (control), or treated with 10 μg/mL of either bHDL. The bHDL were dissolved in H2O. Cells were incubated for an additional 48 hours and assayed for viability using the MTS assays kit (Promega) according to the manufacturer's protocol.
CT26 cell line derived from N-nitroso-N-methyl urethane-induced mouse colon carcinoma of BALB/c origin was purchased from the American Type Culture Collection. CT26 cells (2,000 cells per well) were first cultured in complete medium in 96-well culture plates, and 24 hours later the medium was replaced with serum-free medium. Following an overnight incubation, the cells were either treated with vehicle (control) or treated with 10 mg/mL of either L-4F or G* peptide. The peptides were dissolved in H2O. Cells were incubated for an additional 48 hours and assayed for viability using the MTS assay kit (Promega) according to the manufacturer's protocol.

CD31 = assay: ID8 flank tumor model, CD31 staining of vessels; assay type: in vivo, mouse; details: C57BL/6J mice, 10 mg/kg s.c. daily for 3 weeks, vs control group
Procedure: as §1, §2

ERK1/2 = assay: Insulin-stimulated phosphorylation of ERK1/2 in OV2008 cells, Western blot; assay type: cell-based, human; details: 10 μg/ml, insulin 200 nM
Procedure: FIGS. 10A-10B. Effect of L-4F on the insulin-stimulated activation of downstream signaling molecules in OV2008 cells. After an overnight starvation, OV2008 cells were treated with L-4F (10 μg/ml) for 1 h, and insulin was added at a final concentration of 200 nM. Cell lysates were collected at various time points and subjected to Western blot analysis. FIG. 10A, L-4F inhibits insulin-stimulated phosphorylation of p70s6 kinase and subsequent HIF-1α expression in OV2008 cells. FIG. 10B, effect of L-4F on insulinstimulated phosphorylation of ERK1/2 and Akt in OV2008 cells.
Western blot analyses were performed as described previously (Gao et al., 2011). In brief, cell lysates were collected in a lysis buffer containing 0.1 MNaCl, 5 mM EDTA, 50 μM sodium orthovanadate, 1% Triton X-100, and protease inhibitor tablet (Roche Diagnostics, Indianapolis, Ind.) in 50 mM Tris buffer, pH 7.5, loaded onto 4 to 12% Bis-Tris gel (Invitrogen), transferred to polyvinylidene difluoride membrane, and incubated with the appropriate antibodies. […]

[3] = tested on: lysophosphatidic acid (LPA); assay: Plasma LPA levels in treated mice; assay type: in vivo, mouse; details: for plasma LPA levels: vs control mice
Procedure: LPA (20:4) was purchased from Avanti Polar Lipids. LPA levels were determined as described previously (Murph et al., 2007, Methods Enymol 433:1-25).
(§3) LPA (20:4) was purchased from Avanti Polar Lipids. LPA levels were determined as described previously (19).

[4] = tested on: mouse ovarian cancer cells (ID-8 cells); details: reference (17); cited from earlier work
LPA = LPA levels in CT26 cell culture medium; assay type: cell-based, mouse; details: CT26 cells; 48 hours; vs control medium
Procedure: FIGS. 17A-17B. HDL mimetic, L-4F inhibits LPA induced viability of CT26 cells and reduces LPA levels in cell culture medium. FIG. 17A, CT26 cells were cultured as described in Example 5 and incubated with either L-4F at 10 mg/mL or LPA at a concentration 5, 10, […], or cells were treated with both L-4F and LPA for 48 hours. All experiments were conducted in triplicate and each assay was carried out in quadruplicates. Data are represented as the mean±SD of the percent of control cells. FIG. 17B, LPA levels were measured in the cell culture medium after 48 hours of treatment.
as §3
LPA has been identified as an important mediator of tumor development, progression, and metastases in humans (26, 27). We have previously shown that apoAI mimetic peptides inhibit LPA-induced viability of ID8 cells and reduce serum LPA levels in mice injected with ID8 cells (17). […] LPA 20:4 and 18:1 were not detectable in cell culture medium (FIG. 17B).

HIF-1α [5] = assay: HIF-1α protein stability with cycloheximide in OV2008 cells; assay type: cell-based, human; details: insulin 200 nM, CHX 20 μg/ml, L-4F 10 μg/ml
Procedure: FIGS. 11A-11B. Effect of L-4F on HIF-1α protein stability in OV2008 cells. FIG. 11A, left, pretreatment of L-4F promotes HIF-1α degradation in OV2008 cells. After an overnight starvation, OV2008 cells were treated with insulin (200 nM) for 3 h, L-4F (10 μg/ml) for 1 h, and CHX (20 μg/ml) for various durations. Cell lysates were collected and subjected to Western blot analysis. […] Right, L-4F treatment promotes HIF-1α degradation in OV2008 cells. After an overnight starvation, OV2008 cells were treated with insulin (200 nM) for 3 h and then treated with L-4F (10 μg/ml) and CHX (20 μg/ml) at the same time. Cell lysates were collected at various time points and subjected to Western blot analysis. […] FIG. 11B, effect of pretreatment of L-4F on proteasome-mediated degradation of HIF-1α in insulin-treated OV2008 cells. After an overnight starvation, OV2008 cells were treated with MG-132 (10 μM) for 3 h, L-4F (10 μg/ml) for 1 h, and insulin (200 nM) for an additional 4 h. Cell lysates were collected and subjected to Western blot analysis.
Western blot analyses were performed as described previously (Gao et al., 2011). […]

Question: With “Ac-DWFKAFYDKVAEKFKEAF-NH2 [L-4F, Ac-D-W-F-K-A-F-Y-D-K-V-A-E-K-F-K-E-A-F-NH2]” as the substance, how does the “HIF-1α expression in tumor tissues” value (HIF-1α [1]) read?
Answer: Its value is “decreased”.

Question: What about the NIH3T3 cell viability (NIH3T3 cells) of the same substance?
Answer: Its NIH3T3 cell viability is “not affected”.

Question: And the “binding of LPA” value [2]?
Answer: The value was “binds”.

Question: And the “Cell viability reduced by, compared with control” value (CT26 cells; 10 μg/mL)?
Answer: The value was “more than 20%”.

Question: What about the “Cell viability reduced, compared with control” value (CT26 cells; 10 mg/mL) of the same substance?
Answer: Its value is “more than 25%”.

Question: And the “number of vessels in tumors” value (CD31)?
Answer: The value was “reduction in the number of vessels”.

Question: What about the “insulin-stimulated activation of ERK1/2” value (ERK1/2) of the same substance?
Answer: Its value is “inhibited activation”.

Question: And the “plasma LPA levels” value ([3]; BALB/c lung tumor mice, 100 mg/kg/d in chow for 3 weeks)?
Answer: The value was “significantly reduced”.

Question: What about the “plasma LPA levels” value ([3]; C57BL/6J-APC^min/+ mice, 100 mg/kg/d in mouse chow for 8 weeks) of the same substance?
Answer: Its value is “significantly reduced”.

Question: And the “decrease of plasma LPA levels compared with control mice” value ([3]; C57BL/6J-APC^min/+ mice, chow, 8 weeks)?
Answer: The value was > 50%.

Question: What about the viability and proliferation [4] of the same substance?
Answer: Its viability and proliferation is “reduced”.

Question: What about the “LPA 16:0 and 18:0 levels in cell culture medium” value (LPA) of the same substance?
Answer: Its value is “significantly decreased”.

Question: And the “degradation of HIF-1α protein” value (HIF-1α [5])?
Answer: The value was “accelerated the degradation”.
